Results reported in PubChem BioAssay AID1845201 (Molecular Pharmacology Branch, DTP, NCI, 2023).

Tested on: COR L88 complex tumor spheroid viability
Assay: Anticancer human tumor COR L88 cell line growth inhibition;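 also: compound exposure lasted 7 days before viability readout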;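 as to viability, T/C: percent of DMSO vehicle-treated spheroids = 100%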
Settings: for IC50: curve of first compound; for viability, T/C: stronger effect = lower value; active = viability on the fitted dose curve at most 10% of control; inactive = the rest
How it was run: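 Complex spheroids of malignant cells with endothelial cells and mesenchymal stem cells; agents alone or combined, from near clinical Cmax (or 10 microM if unknown) down in half-log steps, 0.25% DMSO final.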

[1] = second compound 1 µM, first compound 0.0316 µM
[2] = second compound 1 µM, first compound 0.1 µM
[3] = second compound 1 µM, first compound 0.316 µM
[4] = second compound 1 µM, first compound 1 µM
[5] = second compound 1 µM, first compound 3.16 µM
[6] = second compound 1 µM, first compound 10 µM
[7] = second compound 3.16 µM, first compound 0.0316 µM
[8] = second compound 3.16 µM, first compound 0.1 µM
[9] = second compound 3.16 µM, first compound 0.316 µM
[10] = second compound 3.16 µM, first compound 1 µM
[11] = second compound 3.16 µM, first compound 3.16 µM
[12] = second compound 3.16 µM, first compound 10 µM
[13] = second compound 10 µM, first compound 0.0316 µM
[14] = second compound 10 µM, first compound 0.1 µM
[15] = second compound 10 µM, first compound 0.316 µM
[16] = second compound 10 µM, first compound 1 µM
[17] = second compound 10 µM, first compound 3.16 µM
[18] = second compound 10 µM, first compound 10 µM
[19] = second compound 31.6 µM, first compound 0.0316 µM
[20] = second compound 31.6 µM, first compound 0.1 µM
[21] = second compound 31.6 µM, first compound 0.316 µM
[22] = second compound 31.6 µM, first compound 1 µM
[23] = second compound 31.6 µM, first compound 3.16 µM
[24] = second compound 31.6 µM, first compound 10 µM
[25] = second compound 100 µM, first compound 0.0316 µM
[26] = second compound 100 µM, first compound 0.1 µM
[27] = second compound 100 µM, first compound 0.316 µM
[28] = second compound 100 µM, first compound 1 µM
[29] = second compound 100 µM, first compound 3.16 µM
[30] = second compound 100 µM, first compound 10 µM

CC1COCCN1c1cc(-c2ccnn2C)c2ccnc(-c3ccn[nH]3)c2n1 (stereo not given) + Cn1nnc2c(C(N)=O)ncn2c1=O
159 nM: IC50 (second compound 1 µM)
77.4 nM: IC50 (second compound 3.16 µM)
inactive: viability, T/C [1] 80.7% | viability, T/C [2] 53.9% | viability, T/C [3] 41.1% | viability, T/C [4] 26.6% | viability, T/C [5] 11.2% | viability, T/C [7] 59% | viability, T/C [8] 47.8% | viability, T/C [9] 33.9% | viability, T/C [10] 22.4% | viability, T/C [11] 11.9% | viability, T/C [13] 46.1% | viability, T/C [14] 36.3% | viability, T/C [15] 29.4% | viability, T/C [16] 18.4% | viability, T/C [17] 9.76% | viability, T/C [19] 41.7% | viability, T/C [20] 33.8% | viability, T/C [21] 24.1% | viability, T/C [22] 16.8% | viability, T/C [25] 34.3% | viability, T/C [26] 27.8% | viability, T/C [27] 21.5% | viability, T/C [28] 12.3%
active: viability, T/C [6] 5.06% | viability, T/C [12] 4.44% | viability, T/C [18] 3.5% | viability, T/C [23] 7.93% | viability, T/C [24] 3.99% | viability, T/C [29] 6.89% | viability, T/C [30] 3.01%
< 31.6 nM: IC50 (second compound 10 µM) | IC50 (second compound 31.6 µM) | IC50 (second compound 100 µM)

COc1cc(C)[nH]c(=O)c1CN1CCc2c(Cl)cc(C(OC)C3COC3)c(Cl)c2C1=O (stereo not given) + Cn1nnc2c(C(N)=O)ncn2c1=O
111 nM: IC50 (second compound 31.6 µM)
549 nM: IC50 (second compound 10 µM)
< 31.6 nM: IC50 (second compound 100 µM)
inactive: viability, T/C [1] 76.1% | viability, T/C [2] 75% | viability, T/C [3] 71.3% | viability, T/C [4] 65.9% | viability, T/C [5] 67.5% | viability, T/C [6] 66.6% | viability, T/C [7] 74% | viability, T/C [8] 74.8% | viability, T/C [9] 63.4% | viability, T/C [10] 71.6% | viability, T/C [11] 69.7% | viability, T/C [12] 68.7% | viability, T/C [13] 62.7% | viability, T/C [14] 57.4% | viability, T/C [15] 48.8% | viability, T/C [16] 50.3% | viability, T/C [17] 46.6% | viability, T/C [18] 43.2% | viability, T/C [19] 55.5% | viability, T/C [20] 51.5% | viability, T/C [21] 39.7% | viability, T/C [22] 37% | viability, T/C [23] 33.3% | viability, T/C [24] 33.6% | viability, T/C [25] 49% | viability, T/C [26] 43.5% | viability, T/C [27] 37.2% | viability, T/C [28] 35.3% | viability, T/C [29] 33.3% | viability, T/C [30] 31.6%
> 10000 nM: IC50 (second compound 1 µM) | IC50 (second compound 3.16 µM)

COc1ccc([C@@H](O)c2cc(-c3ncnc4cc(N5CCOCC5)ccc34)c(F)cc2Cl)nn1 + Cn1nnc2c(C(N)=O)ncn2c1=O
> 10000 nM: IC50 (second compound 10 µM) | IC50 (second compound 31.6 µM) | IC50 (second compound 100 µM)
inactive: viability, T/C [1] 96.4% | viability, T/C [2] 94.1% | viability, T/C [3] 82% | viability, T/C [4] 78.3% | viability, T/C [5] 61.4% | viability, T/C [6] 36.7% | viability, T/C [7] 92.8% | viability, T/C [8] 104% | viability, T/C [9] 90.9% | viability, T/C [10] 88.2% | viability, T/C [11] 64.3% | viability, T/C [12] 47.2% | viability, T/C [13] 87% | viability, T/C [14] 98.7% | viability, T/C [15] 92% | viability, T/C [16] 75.1% | viability, T/C [17] 67.9% | viability, T/C [18] 54.6% | viability, T/C [19] 89.3% | viability, T/C [20] 79.9% | viability, T/C [21] 84.6% | viability, T/C [22] 73.9% | viability, T/C [23] 67.2% | viability, T/C [24] 51.3% | viability, T/C [25] 69.9% | viability, T/C [26] 70.8% | viability, T/C [27] 68% | viability, T/C [28] 62.5% | viability, T/C [29] 58.1% | viability, T/C [30] 55.4%
8270 nM: IC50 (second compound 3.16 µM)
5380 nM: IC50 (second compound 1 µM)

Cc1cc(C)c(CNC(=O)c2cc(-c3ccc(CN4CCOCC4)cc3)cc3c2cnn3C2CCCC2)c(=O)[nH]1 + Cn1nnc2c(C(N)=O)ncn2c1=O
> 10000 nM: IC50 (second compound 1 µM) | IC50 (second compound 3.16 µM) | IC50 (second compound 10 µM)
8540 nM: IC50 (second compound 31.6 µM)
3350 nM: IC50 (second compound 100 µM)
inactive: viability, T/C [1] 102% | viability, T/C [2] 97% | viability, T/C [3] 93% | viability, T/C [4] 86.1% | viability, T/C [5] 76.8% | viability, T/C [6] 53.3% | viability, T/C [7] 101% | viability, T/C [8] 99.5% | viability, T/C [9] 88.5% | viability, T/C [10] 83.2% | viability, T/C [11] 72% | viability, T/C [12] 56.5% | viability, T/C [13] 90.7% | viability, T/C [14] 86.4% | viability, T/C [15] 88.5% | viability, T/C [16] 75.2% | viability, T/C [17] 69.8% | viability, T/C [18] 51.3% | viability, T/C [19] 86.7% | viability, T/C [20] 79.1% | viability, T/C [21] 78% | viability, T/C [22] 69% | viability, T/C [23] 56.1% | viability, T/C [24] 49.7% | viability, T/C [25] 68.7% | viability, T/C [26] 62.7% | viability, T/C [27] 63% | viability, T/C [28] 52.7% | viability, T/C [29] 49.1% | viability, T/C [30] 47%

Cc1sc2c(c1C)C(c1ccc(Cl)cc1)=NC(CC(=O)Nc1ccc(O)cc1)c1nnc(C)n1-2 (stereo not given) + Cn1nnc2c(C(N)=O)ncn2c1=O
880 nM: IC50 (second compound 100 µM)
inactive: viability, T/C (second compound 1 µM, first compound 0.00949 µM) 86.5% | viability, T/C (second compound 1 µM, first compound 0.03 µM) 94% | viability, T/C (second compound 1 µM, first compound 0.0949 µM) 97.9% | viability, T/C (second compound 1 µM, first compound 0.3 µM) 63.2% | viability, T/C (second compound 1 µM, first compound 0.949 µM) 34.8% | viability, T/C (second compound 1 µM, first compound 3 µM) 22.4% | viability, T/C (second compound 3.16 µM, first compound 0.00949 µM) 98.8% | viability, T/C (second compound 3.16 µM, first compound 0.03 µM) 96.5% | viability, T/C (second compound 3.16 µM, first compound 0.0949 µM) 100% | viability, T/C (second compound 3.16 µM, first compound 0.3 µM) 70.6% | viability, T/C (second compound 3.16 µM, first compound 0.949 µM) 38.6% | viability, T/C (second compound 3.16 µM, first compound 3 µM) 21.5% | viability, T/C (second compound 10 µM, first compound 0.00949 µM) 88.1% | viability, T/C (second compound 10 µM, first compound 0.03 µM) 94.1% | viability, T/C (second compound 10 µM, first compound 0.0949 µM) 103% | viability, T/C (second compound 10 µM, first compound 0.3 µM) 64.7% | viability, T/C (second compound 10 µM, first compound 0.949 µM) 41.2% | viability, T/C (second compound 10 µM, first compound 3 µM) 18.8% | viability, T/C (second compound 31.6 µM, first compound 0.00949 µM) 89% | viability, T/C (second compound 31.6 µM, first compound 0.03 µM) 101% | viability, T/C (second compound 31.6 µM, first compound 0.0949 µM) 104% | viability, T/C (second compound 31.6 µM, first compound 0.3 µM) 87.7% | viability, T/C (second compound 31.6 µM, first compound 0.949 µM) 42.7% | viability, T/C (second compound 31.6 µM, first compound 3 µM) 23.8% | viability, T/C (second compound 100 µM, first compound 0.00949 µM) 78.4% | viability, T/C (second compound 100 µM, first compound 0.03 µM) 85.4% | viability, T/C (second compound 100 µM, first compound 0.0949 µM) 92.2% | viability, T/C (second compound 100 µM, first compound 0.3 µM) 88.1% | viability, T/C (second compound 100 µM, first compound 0.949 µM) 47.4% | viability, T/C (second compound 100 µM, first compound 3 µM) 28.2%
624 nM: IC50 (second compound 3.16 µM)
610 nM: IC50 (second compound 10 µM)
785 nM: IC50 (second compound 31.6 µM)
499 nM: IC50 (second compound 1 µM)

[2H]c1nc(C)nc([2H])c1-c1cc(NC[C@@H](C)c2cccc3c(C(=O)NC)ccnc23)ncn1 + Cn1nnc2c(C(N)=O)ncn2c1=O
inactive: viability, T/C [1] 97.1% | viability, T/C [2] 98.5% | viability, T/C [3] 89.8% | viability, T/C [4] 93.3% | viability, T/C [5] 96% | viability, T/C [6] 97% | viability, T/C [7] 94.5% | viability, T/C [8] 95.3% | viability, T/C [9] 105% | viability, T/C [10] 98.6% | viability, T/C [11] 102% | viability, T/C [12] 103% | viability, T/C [13] 92.2% | viability, T/C [14] 93.3% | viability, T/C [15] 97.7% | viability, T/C [16] 88.7% | viability, T/C [17] 88.9% | viability, T/C [18] 98.7% | viability, T/C [19] 80% | viability, T/C [20] 85.6% | viability, T/C [21] 75.9% | viability, T/C [22] 82.4% | viability, T/C [23] 82.2% | viability, T/C [24] 75.8% | viability, T/C [25] 66% | viability, T/C [26] 66.6% | viability, T/C [27] 63.7% | viability, T/C [28] 69.5% | viability, T/C [29] 64.2% | viability, T/C [30] 65.8%
> 10000 nM: IC50 (second compound 1 µM) | IC50 (second compound 3.16 µM) | IC50 (second compound 10 µM) | IC50 (second compound 31.6 µM) | IC50 (second compound 100 µM)
